Read-outs that look alike come from different tables or passages of the source.
Assays:
[1] = target: T1, aldose reductase (Bos taurus, UniProt P16116); assay: In vitro inhibition of aldose reductase (modified Hayman and Kinoshita procedure, enzyme from bovine lens); type: biochemical; conditions: read-out: % Inhibition in Vitro; for inhibition at 1 µM: 10^-6 M
T1 construct: preparation of the enzyme from bovine lens; from tissue; host or cells: bovine lens
Text: In the present case the procedure of Hayman and Kinoshita was modified in that the final chromatography step was omitted in the preparation of the enzyme from bovine lens.

[2] = test system: diabetic (db/db) mice; assay: Blood glucose lowering activity in diabetic (db/db) mice; type: in vivo, mouse (db/db, C57BL/KsJ); conditions: for change in vivo at 100 mg/kg: Mus musculus, po, 96 h, 100 mg/kg/day p.o. (gavage), read-out: % Change from vehicle (plasma glucose)
Text: The blood glucose lowering activity of the compounds of this invention were demonstrable in experiments using diabetic (db/db) mice. […] The animals are obese, glucose intolerant and have fasting hyperglycemia which is sometimes accompanied by a paradoxical hyperinsulinemia. Furthermore, the db/db mouse will eventually develop some of the long-term complications that have been associated with diabetes mellitus. [See Coleman Diabetes, 31 (Suppl. 1), 1 (1982)]. In spite of these commonalities, the acute administration of sulfonylureas (even at extremely high dosages) will not reduce the hyperglycemia of the db/db mouse. [See Tutwiler et al, Diabetes 27, 856 (1978)]. […] On the morning of Day 1, 35 mice [male db/db (C57BL/KsJ), Jackson Laboratories, 2 to 7 months of age and body weight 35 to 60 g] were fasted for 4 hours, weighted and a baseline blood sample was collected from the tail-tip of each mouse without anesthesia, placed directly into a fluoride-containing tube, mixed and maintained on ice. Food was then returned to the mice. The plasma was separated and levels of glucose in plasma determined by the Abbott VP Analyzer. Because of the variable plasma glucose levels of the db/db mice, 5 mice having the most extreme (i.e., highest or lowest) plasma glucose levels were excluded and the remaining 30 mice were randomly assigned into […] of equivalent means plasma glucose levels: On the afternoon of Days 1, 2 and 3 the vehicle, control or test drugs were administered (p.o.) to the ad libitum fed mice. […] The test compounds were given by gavage at a dose of 100 mg/kg/day unless otherwise noted in Table 3. On the morning of Day 4, the mice were weighted and fasted, but water was available ad libitum. Three hours later, a blood sample was collected and then the mice were given the fourth administration of drug or vehicle. Blood samples were collected again from the unanesthetized mice at 2 and 4 hours after drug administration. The plasma was separated and levels of glucose in plasma determined by the Abbott VP Analyzer. For each mouse, the percent change of it's plasma glucose level on Day 4 (mean of the 2 and 4 hour samples) from it's respective level before drug administration (Day 1 baseline sample) was determined as follows: [formula] Analysis of variance followed by Dunnett's multiple comparison (one-sided) was used to estimate the degree of statistical significance of the difference between the vehicle group and the individual drug-treated groups. A drug was considered active, at the specific dosage administered,if the difference of the plasma glucose level has a p<0.05.

[3] = test system: hyperglycemia and hyperinsulinemia; conditions: Fujita et al, Diabetes, 32, 804 (1983); cited from earlier work
[4] = test system: galactosemic rats; assay: Lowering of galactitol (dulcitol) accumulation in tissues of galactosemic rats; type: in vivo, rat (Sprague-Dawley); conditions: 4 days, vs untreated galactosemic rats
Text: The aldose reductase inhibiting property of the compounds of this invention and the utilization of the compounds in preventing, diminishing and alleviating diabetic complications by lowering polyol accumulation were also demonstrable in experiments using galactosemic rats, see Dvornik et al, Science, 182, 1146 (1973). Such experiments are exemplified hereinbelow after the listing of the following general comments pertaining to these experiments:
(a) Four or more groups of six male rats, 50-70 g, Sprague-Dawley strain, were used. The first group, the control group, was fed a mixture of laboratory chow (rodent Laboratory Chow, Purina) and glucose at 20% (w/w %) concentration. The untreated galactosemic group and the drug-treated groups were fed a similar diet in which galactose is substituted for glucose. The test compound was either admixed to the diet or administered by gavage. In experiments involving compound administration in the diet, the average dose administered was calculated from the actual food intake of the animals in each group. The concentration of galactose in the diet of the treated groups was the same as that for the untreated galactosemic groups.
(b) After four days, the amimals were killed by decapitation. The eyeballs were removed and punctured with a razor blade; the freed lenses were rolled gently on filter paper and weighed. The sciatic nerves were dissected as completely as possible and weighed. Both tissues when frozen can be kept up to two weeks before being analyzed for galactitol.
(c) The polyol determination was performed by a modification of the procedure of M. Kraml and L. Cosyns, Clin. Biochem., 2, 373 (1969). Only two minor reagent changes were made: (a) the rinsing mixture was an aqueous 5% (w/v) trichloroacetic acid solution and (b) the stock solution was prepared by dissolving 25 mg of dulcitol in 100 mL of an aqueous trichloroacetic acid solution. [N.B.: For each experiment the average value found in the tissue from rats fed the glucose diet was subtracted from the individual values found in the corresponding tissue in galactose-fed rats to obtain the amount of polyol accumulated.]
The figures under L, N, and D represent the percentage decrease of galactitol accumulation in the tissues of the lens, sciatic nerve, and diaphragm, respectively, for treated rats as compared to untreated rats.

[5] = Day 4 mean of 2 and 4 hour samples vs Day 1 baseline, difference from vehicle

inhibition at 10 µM ([1]; 10^-5 M)	inhibition at 1 µM [1]	Compound	change in vivo at 100 mg/kg [2, 5]	further results
63%	16%	O=C1CC2(C(=O)N1)c1ccccc1S(=O)(=O)N2Cc1ccc(Cl)c(Cl)c1 (centres unmarked) [Example 105]	-27%	
		O=C1CC2(C(=O)N1)c1ccccc1S(=O)(=O)N2Cc1c(F)cccc1Cl (centres unmarked) [Example 110]	-17%	
		CC1(COc2ccc(CC3SC(=O)NC3=O)cc2)CCCCC1 (racemic) [Ciglitazone, (±)-5-[4-[(1-methylcyclohexyl)methoxy]benzyl]-thiazolidine-2,4-dione, reference compound]	-33%	effect on hyperglycemia and hyperinsulinemia [3]: normalizes these parameters
84%	54%	O=C1CC2(C(=O)N1)c1ccccc1C(=O)N2Cc1ccc(Br)cc1F (centres unmarked) [Example 116, 2-[(4-bromo-2-fluorophenyl)methyl]spiro[1H-isoindole-1,3'pyrrolidine]-2',3,5'(2H)-trione]	-36%	% Lowering of dulcitol accumulation In Vivo, % D (diaphragm) ([4]; 101 mg/kg): 30%
52%	3%	O=C1CC2(C(=O)N1)c1ccccc1S(=O)(=O)N2Cc1ccc(Br)cc1F (centres unmarked) [Example 104, 2-[(4-bromo-2-fluorophenyl)methyl]-2,3-dihydrospiro[1,2-benzisothiazole-3,3'-pyrrolidine]-2',5'-dione 1,1-dioxide]	-48%	% Lowering of dulcitol accumulation In Vivo, % L (lens) ([4]; 104 mg/kg): 13%; comparison with ciglitazone, blood glucose lowering ([2]; 100 mg/kg, db/db mice): gives comparable results to ciglitazone at 100 mg/kg
		O=C1CC2(C(=O)N1)c1ccccc1C(=O)N2Cc1ccccc1 (centres unmarked) [Example 114]	-22%	
82%	45%	O=C1CC2(C(=O)N1)c1ccccc1C(=O)N2Cc1ccc(Cl)c(Cl)c1 (centres unmarked) [Example 115]	-21%	
		O=C1CC2(C(=O)N1)c1ccccc1S(=O)(=O)N2Cc1ccc(Br)cc1 (centres unmarked) [Example 106, 2-[(4-bromophenyl)methyl]-2,3-dihydrospiro[1,2-benzisothiazole-3,3'-pyrrol-idine]-2',5'-dione 1,1-dioxide]	-37%	
		CC(C)N1C2(CC(=O)NC2=O)c2ccccc2S1(=O)=O (centres unmarked) [Example 111]		% Change from vehicle (plasma glucose) ([2]; 87 mg/kg/day p.o. (gavage), Day 4 mean of 2 and 4 hour samples vs Day 1 baseline, difference from vehicle): -27%

Compound	inhibition at 10 µM ([1]; 10^-5 M)	inhibition at 1 µM [1]	change in vivo at 100 mg/kg [2, 5]	further results
CN1C(=O)c2cc(Cl)c(Cl)cc2C12CC(=O)NC2=O (centres unmarked) [Example 122, 5,6-dichloro-2-methylspiro[1H-isoindole-1,3'-pyrrolidine]-2',3,5'(2H)-trione]		83%	-31%	inhibition at 10 µM [1]: 94%; % Lowering of dulcitol accumulation In Vivo, % D (diaphragm) ([4]; 3 mg/kg): 25%; % Lowering of dulcitol accumulation In Vivo, % N (sciatic nerve) ([4]; 3 mg/kg): 20%; % Lowering of dulcitol accumulation In Vivo, % D (diaphragm) ([4]; 50 mg/kg): 90%; % Lowering of dulcitol accumulation In Vivo, % L (lens) ([4]; 50 mg/kg): 71%; % Lowering of dulcitol accumulation In Vivo, % N (sciatic nerve) ([4]; 50 mg/kg): 94%

From patent publication US4946858A, “Novel spirosuccinimides as aldose reductase inhibitors and antihyperglycemic agents” (American Home Products Corporation, priority 1989, dated 1990)
